Test [1] is described as follows: administration of three kinds of samples for 2 months to groups of 30 persons. The note with it: numbers of the persons; administered for 2 months; group of 30 persons. The class given is in vivo. From the text:
(a) a sample of cholic acid alone,
(b) a sample of soybean isoflavone glycoside alone, and
were each administered for 2 months to each group containing 30 persons to be tested.

Test [2] is described as follows: preliminary administration experiment. The class given is in vivo. The note with it: several persons who ingested the substance alone.

This note sets out measurements from patent publication US6793943B2, “Health food products” (priority 2000, dated 2004).

Consider `C[C@H](CCC(=O)O)[C@H]1CC[C@H]2[C@@H]3[C@H](O)C[C@@H]4C[C@H](O)CC[C@]4(C)[C@H]3C[C@H](O)[C@]12C` [cholic acid], for which, in test [1], the “Alcoholic beverage tasted good” value came out at 8 Persons, the Evacuation became easy is 1 Person Persons, the Feces amount increased result is on record as “No Person” and the No hangover noted stood at 4 Persons. For the same molecule, the “Significantly recovered from fatigue” value in test [1] was “No Person”. For the same molecule, the “troubles by drinking an alcoholic beverage” value in test [2] is reported as “ameliorated”.
